Source: ChEMBL document CHEMBL1201862, “PubChem BioAssay data set” (2004)
Activity calls are given as the source filed them.

What was measured:
[1] = A cytotoxicity screen of small molecule inhibitors of the PhoP region in Salmonella typhi identified in the primary screen. [Related pubchem assays: 1850, 1864, 1985 ]; format: functional
Cytochrome P450 2C19 = Cytochrome P450 2C19 (Homo sapiens, UniProt P33261); test: Cytochrome panel assay with activity outcomes. Panel member name: p450-cyp2c19 Compounds with AC50 equal or less than 10 uM are considered active; format: functional; conditions: read-out: AC50
Cytochrome P450 1A2 = target: T1, Cytochrome P450 1A2 (Homo sapiens, UniProt P05177);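 note: PubChem cytochrome P450 panel assay, CYP1A2 panel member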
T1 sequence (P05177 whole entry): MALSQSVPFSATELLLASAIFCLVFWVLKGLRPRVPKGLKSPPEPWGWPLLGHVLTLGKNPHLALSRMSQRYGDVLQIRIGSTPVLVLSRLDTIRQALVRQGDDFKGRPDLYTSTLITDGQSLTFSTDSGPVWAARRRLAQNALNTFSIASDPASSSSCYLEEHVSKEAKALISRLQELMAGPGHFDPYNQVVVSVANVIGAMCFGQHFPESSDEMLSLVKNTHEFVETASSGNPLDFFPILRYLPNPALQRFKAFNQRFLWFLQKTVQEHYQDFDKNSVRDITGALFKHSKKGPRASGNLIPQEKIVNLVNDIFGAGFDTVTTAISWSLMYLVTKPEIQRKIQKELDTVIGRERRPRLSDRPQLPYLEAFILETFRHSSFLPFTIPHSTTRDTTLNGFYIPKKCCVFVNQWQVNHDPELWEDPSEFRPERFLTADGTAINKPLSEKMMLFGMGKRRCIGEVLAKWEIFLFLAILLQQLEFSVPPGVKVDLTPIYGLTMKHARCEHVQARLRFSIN

Cytochrome P450 2C9 = Cytochrome P450 2C9 (Homo sapiens, UniProt P11712)
Cytochrome P450 2D6 = Cytochrome P450 2D6 (Homo sapiens, UniProt P10635);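 note: CYP2D6 member of a cytochrome P450 panel assay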
cells [2] = format: functional
cells [3] = format: functional, cell-based
cells [4] = format: functional, cell-based; remark: listed apart in the source
[5] = target: T2, Carboxy-terminal domain RNA polymerase II polypeptide A small phosphatase 1 (Homo sapiens, UniProt Q9GZU7); test: inhibitors of CTDSP1, concentration-response testing, biochemical assay, absorbance-based, actives from ultra-high-throughput screening (AID 540297); format: functional
T2 sequence (Q9GZU7 whole entry): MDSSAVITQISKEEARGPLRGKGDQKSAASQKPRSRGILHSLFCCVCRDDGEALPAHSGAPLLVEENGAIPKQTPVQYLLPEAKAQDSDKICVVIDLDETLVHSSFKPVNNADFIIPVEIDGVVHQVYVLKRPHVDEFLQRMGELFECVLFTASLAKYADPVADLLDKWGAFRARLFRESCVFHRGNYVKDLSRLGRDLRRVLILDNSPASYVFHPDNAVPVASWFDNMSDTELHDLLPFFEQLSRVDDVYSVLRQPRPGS

Cytochrome P450 3A4 [6] = target: T3, Cytochrome P450 3A4 (Homo sapiens, UniProt P08684); conditions: Potency
[7] = THP-1 cell cytotoxicity, dose response, cytotoxicity control for Vif-APOBEC3G degradation inhibitor project, THP-1 cells (AID 1117359); format: functional; conditions: Human immunodeficiency virus 1, THP-1
Cytochrome P450 3A4 [8] = target: T3, Cytochrome P450 3A4
[9] = target: Glyceraldehyde-3-phosphate dehydrogenase (Homo sapiens, UniProt P04406)
[10] = target: Voltage-dependent T-type calcium channel subunit alpha-1H (Homo sapiens, UniProt O95180); format: functional;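 note: channel activity triggered by adding a high calcium stimulation buffer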
[11] = inhibitors of intracellular T. cruzi replication, confirmation, NIH3T3 host cells, beta-gal luminescence (AID 2044); format: functional, cell-based;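 note: intracellular parasites grown in NIH/3T3 mouse fibroblasts as host cells; luminescent beta-galactosidase reporter signal from transgenic T. cruzi replicating inside host cells; inhibitors lower the luminescence signal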
[12] = cytotoxicity toward NIH3T3 fibroblasts, dose response, counter-screen, cell-based, ATP luminescence, mouse fibroblasts (AID 2010); format: functional;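 note: cells exposed to compound for about 90 hours before reading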
[13] = inhibitors of HIV Env-driven cell fusion, dose response, cherry-pick (AID 652057); format: functional, cell-based
[14] = ZM109 Env clade C HIV-1 fusion inhibitors, dose response, HeLa effector, CEM target cells, luciferase, cherry-pick (AID 652058); format: functional, cell-based
[15] = off-target signal loss in HeLa-CEM21 co-culture – HeLa F-luc CTL cells, cherry-picked, counter-screen for HIV-1 Env fusion inhibitor project, dose response (AID 652040); format: functional, cell-based;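 note: potency for signal decrease marking cytotoxic or nonspecific inhibition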
[16] = inhibitors of clade B AD8 Env fusion, dose response, cell-based, cherry-pick (AID 652062); format: functional;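 note: luciferase signal from cell-cell fusion driven by HIV-1 clade B AD8 Env; potency is for inhibitors of fusion seen as a drop in luminescence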
[17] = Luminescence Cell-Based Dose Confirmation HTS to Identify Activators of 5'UTR Stem-Loop Driven Alpha-Synuclein mRNA Translation in H4 Neuroglioblastoma Cells. [Related pubchem assays: 1829 (Project Summary), 1814 (Primary HTS)]; format: functional
[18] = Luminescence Cell-Based Dose Response HTS to Identify Activators of Luciferase Translation or Activity in H4 […] Cells. [Related pubchem assays: 1829 (Project Summary), 1814 (Primary HTS)]; format: functional
H4 = test: Luminescence Cell-Based Dose Response HTS to Identify Activators of 5'UTR Stem-Loop Driven Prion Protein mRNA Translation in H4 Neuroglioblastoma Cells. [Related pubchem assays: 1829 (Project Summary), 1814 (Primary HTS)]; format: functional; conditions: Homo sapiens
[19] = target: Luciferin 4-monooxygenase (Photinus pyralis, UniProt P08659); test: firefly luciferase enzyme inhibitors, dose response, biochemical, luminescence (AID 1891)
[20] = Luminescence Cell-Based Dose Confirmation HTS to Identify Inhibitors of Platelet Dense Granule Release. [Related pubchem assays: 1663 (Primary HTS), 1678 (Summary of Project)]; format: functional
INS1 = test: beta cell apoptosis inhibitors, cytokine rescue, dose response, luminescence, retest (AID 449756); format: functional, cell-based; conditions: Rattus norvegicus;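 note: cell death triggered by IL-1 beta plus TNF-alpha plus IFN-gamma mixture; protective hits raise ATP signal compared with cytokine alone wells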

Cytochrome P450 2C19, sequence (P33261 whole entry): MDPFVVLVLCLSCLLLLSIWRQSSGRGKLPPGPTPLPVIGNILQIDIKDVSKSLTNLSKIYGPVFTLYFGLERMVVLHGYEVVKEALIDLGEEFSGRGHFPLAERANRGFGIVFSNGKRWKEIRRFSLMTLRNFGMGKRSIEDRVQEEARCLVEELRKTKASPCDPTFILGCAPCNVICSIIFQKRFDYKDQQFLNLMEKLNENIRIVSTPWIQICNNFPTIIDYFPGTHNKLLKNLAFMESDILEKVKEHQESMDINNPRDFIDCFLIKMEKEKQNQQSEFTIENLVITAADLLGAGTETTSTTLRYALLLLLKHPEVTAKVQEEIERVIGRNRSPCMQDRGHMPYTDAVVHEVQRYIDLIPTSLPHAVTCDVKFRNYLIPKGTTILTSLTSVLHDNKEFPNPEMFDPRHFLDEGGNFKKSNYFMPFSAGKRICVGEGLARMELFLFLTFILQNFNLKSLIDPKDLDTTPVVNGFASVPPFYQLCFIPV
Cytochrome P450 2D6, sequence (P10635 whole entry): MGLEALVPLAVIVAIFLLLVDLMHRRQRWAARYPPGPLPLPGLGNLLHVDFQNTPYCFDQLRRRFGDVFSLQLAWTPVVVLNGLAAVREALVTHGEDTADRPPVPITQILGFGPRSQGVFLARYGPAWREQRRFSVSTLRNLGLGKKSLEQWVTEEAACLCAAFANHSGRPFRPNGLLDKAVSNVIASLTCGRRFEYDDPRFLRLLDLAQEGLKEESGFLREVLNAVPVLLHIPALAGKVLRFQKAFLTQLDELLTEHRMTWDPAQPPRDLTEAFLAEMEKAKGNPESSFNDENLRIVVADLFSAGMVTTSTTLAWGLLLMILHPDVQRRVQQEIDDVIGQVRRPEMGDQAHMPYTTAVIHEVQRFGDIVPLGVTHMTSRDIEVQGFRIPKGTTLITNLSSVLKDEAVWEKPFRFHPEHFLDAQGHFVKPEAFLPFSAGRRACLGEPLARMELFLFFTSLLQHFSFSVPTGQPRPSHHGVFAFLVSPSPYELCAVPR
Cytochrome P450 2C9, sequence (P11712 whole entry): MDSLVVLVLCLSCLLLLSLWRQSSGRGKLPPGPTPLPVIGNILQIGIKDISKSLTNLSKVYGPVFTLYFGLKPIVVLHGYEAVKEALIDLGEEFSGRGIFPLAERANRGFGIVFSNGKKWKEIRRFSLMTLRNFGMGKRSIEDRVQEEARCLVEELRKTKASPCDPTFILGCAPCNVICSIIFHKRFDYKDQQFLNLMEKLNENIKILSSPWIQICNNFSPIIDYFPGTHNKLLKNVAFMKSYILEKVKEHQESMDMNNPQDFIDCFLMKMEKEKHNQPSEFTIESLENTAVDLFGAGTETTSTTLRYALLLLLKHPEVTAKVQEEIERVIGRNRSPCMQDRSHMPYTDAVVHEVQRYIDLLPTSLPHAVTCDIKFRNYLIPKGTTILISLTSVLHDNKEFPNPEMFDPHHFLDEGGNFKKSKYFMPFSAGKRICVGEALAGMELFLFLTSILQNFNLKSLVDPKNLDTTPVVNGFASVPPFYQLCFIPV
T3 sequence (P08684 whole entry): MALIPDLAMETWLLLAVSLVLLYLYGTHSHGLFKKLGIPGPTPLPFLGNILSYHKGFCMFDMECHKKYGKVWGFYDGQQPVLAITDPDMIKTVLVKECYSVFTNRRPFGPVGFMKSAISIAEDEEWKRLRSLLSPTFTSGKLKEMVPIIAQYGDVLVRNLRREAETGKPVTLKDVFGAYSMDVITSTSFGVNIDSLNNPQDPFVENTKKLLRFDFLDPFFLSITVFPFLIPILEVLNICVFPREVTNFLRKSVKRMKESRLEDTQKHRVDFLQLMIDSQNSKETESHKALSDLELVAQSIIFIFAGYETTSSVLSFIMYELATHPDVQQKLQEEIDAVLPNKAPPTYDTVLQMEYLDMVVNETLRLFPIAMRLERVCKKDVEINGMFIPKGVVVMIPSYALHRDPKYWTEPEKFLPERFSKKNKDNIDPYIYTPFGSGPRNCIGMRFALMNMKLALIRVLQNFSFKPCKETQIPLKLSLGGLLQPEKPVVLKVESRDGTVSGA
Voltage-dependent T-type calcium channel subunit alpha-1H, sequence (O95180 whole entry): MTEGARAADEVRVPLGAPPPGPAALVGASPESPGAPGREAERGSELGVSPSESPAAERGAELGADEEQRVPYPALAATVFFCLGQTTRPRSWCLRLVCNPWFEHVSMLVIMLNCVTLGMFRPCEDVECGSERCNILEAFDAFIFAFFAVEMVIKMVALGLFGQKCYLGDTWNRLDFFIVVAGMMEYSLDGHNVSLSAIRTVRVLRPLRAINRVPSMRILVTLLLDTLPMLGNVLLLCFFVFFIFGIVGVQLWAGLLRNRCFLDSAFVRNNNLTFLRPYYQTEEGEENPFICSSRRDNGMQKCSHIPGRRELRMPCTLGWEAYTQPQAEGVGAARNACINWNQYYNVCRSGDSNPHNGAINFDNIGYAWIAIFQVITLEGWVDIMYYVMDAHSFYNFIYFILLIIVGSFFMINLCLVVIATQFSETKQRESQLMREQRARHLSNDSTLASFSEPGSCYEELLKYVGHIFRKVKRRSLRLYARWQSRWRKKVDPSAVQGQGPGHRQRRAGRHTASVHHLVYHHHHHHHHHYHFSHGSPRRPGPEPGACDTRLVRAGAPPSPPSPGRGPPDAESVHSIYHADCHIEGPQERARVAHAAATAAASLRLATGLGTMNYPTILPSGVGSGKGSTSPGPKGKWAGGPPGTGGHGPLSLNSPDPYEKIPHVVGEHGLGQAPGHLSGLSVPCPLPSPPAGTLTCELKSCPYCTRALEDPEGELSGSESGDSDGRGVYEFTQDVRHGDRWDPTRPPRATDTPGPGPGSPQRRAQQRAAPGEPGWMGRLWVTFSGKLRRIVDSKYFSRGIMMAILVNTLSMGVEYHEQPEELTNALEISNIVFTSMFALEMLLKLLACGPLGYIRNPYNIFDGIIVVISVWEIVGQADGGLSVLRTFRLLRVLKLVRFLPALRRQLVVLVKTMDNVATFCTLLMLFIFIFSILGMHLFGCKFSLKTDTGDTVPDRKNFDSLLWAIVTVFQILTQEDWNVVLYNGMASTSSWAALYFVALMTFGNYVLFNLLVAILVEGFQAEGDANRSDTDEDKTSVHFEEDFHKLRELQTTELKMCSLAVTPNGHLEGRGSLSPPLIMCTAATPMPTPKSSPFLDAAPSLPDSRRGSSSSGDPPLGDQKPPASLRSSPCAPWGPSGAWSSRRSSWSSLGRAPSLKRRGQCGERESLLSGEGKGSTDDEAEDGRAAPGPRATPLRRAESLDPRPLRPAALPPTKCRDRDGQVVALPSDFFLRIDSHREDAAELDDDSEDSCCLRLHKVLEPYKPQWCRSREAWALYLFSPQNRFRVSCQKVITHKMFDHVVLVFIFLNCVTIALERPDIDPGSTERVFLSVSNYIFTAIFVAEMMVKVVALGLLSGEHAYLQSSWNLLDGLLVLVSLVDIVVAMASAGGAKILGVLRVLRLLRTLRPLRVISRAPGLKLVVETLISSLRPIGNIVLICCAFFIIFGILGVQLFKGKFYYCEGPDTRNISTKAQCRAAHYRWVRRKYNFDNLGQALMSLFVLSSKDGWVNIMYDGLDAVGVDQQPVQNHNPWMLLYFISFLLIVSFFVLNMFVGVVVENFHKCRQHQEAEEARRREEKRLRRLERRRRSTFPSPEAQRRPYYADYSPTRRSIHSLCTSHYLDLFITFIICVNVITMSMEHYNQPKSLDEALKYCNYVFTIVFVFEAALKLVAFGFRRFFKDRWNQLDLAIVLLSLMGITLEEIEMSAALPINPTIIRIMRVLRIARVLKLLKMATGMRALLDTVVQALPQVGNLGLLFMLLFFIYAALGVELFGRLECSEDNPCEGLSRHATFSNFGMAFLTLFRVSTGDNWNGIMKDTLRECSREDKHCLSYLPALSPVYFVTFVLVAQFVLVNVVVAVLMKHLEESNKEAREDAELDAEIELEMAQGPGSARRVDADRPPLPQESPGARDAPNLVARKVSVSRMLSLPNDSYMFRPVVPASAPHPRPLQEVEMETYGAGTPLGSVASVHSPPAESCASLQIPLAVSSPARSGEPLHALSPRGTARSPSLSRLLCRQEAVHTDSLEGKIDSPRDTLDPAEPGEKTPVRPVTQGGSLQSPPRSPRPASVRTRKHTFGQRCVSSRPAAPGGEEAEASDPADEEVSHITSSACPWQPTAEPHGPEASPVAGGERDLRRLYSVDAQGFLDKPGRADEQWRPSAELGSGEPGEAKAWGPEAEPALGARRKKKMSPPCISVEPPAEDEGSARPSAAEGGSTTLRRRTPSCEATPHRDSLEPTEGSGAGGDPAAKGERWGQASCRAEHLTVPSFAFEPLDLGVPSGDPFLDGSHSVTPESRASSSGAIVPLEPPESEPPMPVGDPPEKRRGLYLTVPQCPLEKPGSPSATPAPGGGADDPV
Glyceraldehyde-3-phosphate dehydrogenase, sequence (P04406 whole entry): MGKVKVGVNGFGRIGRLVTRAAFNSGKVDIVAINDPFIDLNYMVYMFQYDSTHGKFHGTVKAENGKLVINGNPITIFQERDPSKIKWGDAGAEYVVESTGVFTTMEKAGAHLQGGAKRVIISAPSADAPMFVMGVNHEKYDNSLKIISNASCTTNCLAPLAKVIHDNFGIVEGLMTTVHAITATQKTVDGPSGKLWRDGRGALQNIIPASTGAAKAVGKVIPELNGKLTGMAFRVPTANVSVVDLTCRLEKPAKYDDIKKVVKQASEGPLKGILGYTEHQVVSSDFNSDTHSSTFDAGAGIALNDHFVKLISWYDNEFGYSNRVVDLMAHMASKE

CCCCCc1nc2c(c3c1CCCC3)CCCC2
EC50 [1]: > 50 µM (active)

O=C(Nc1ccc(Cl)cc1C(F)(F)F)c1ccc(Cl)cc1
AC50 (Cytochrome P450 2C19): 2.24 µM (inconclusive)
AC50 (Cytochrome P450 1A2): 4.47 µM (inconclusive)
AC50 (Cytochrome P450 2C9): inconclusive

O=S(=O)(NC1CCN(Cc2ccccc2)CC1)c1cccc2cccnc12
AC50 (Cytochrome P450 2D6): 1.58 µM (inconclusive)
AC50 (Cytochrome P450 2C9): inconclusive

COc1ccc(C(=O)OCn2nnc3ccccc3c2=O)cc1
IC50 (cells [2]): 16.8 µM (active)

O=C1OCc2cc(NC(=O)C34CC5CC(CC(C5)C3)C4)ccc21
EC50 (cells [3]): > 350 µM (not active)
EC50 (cells [4]): > 350 µM (not active)

NC(=NOC(=O)N1c2ccccc2Sc2ccccc21)c1ccc(Br)cc1
IC50 [5]: 6.46 µM (active)

Cc1ccn2c(=O)nc(SCC(=O)NCc3ccccc3)nc2c1
IC50 [5]: 9.61 µM (active)

CC(C)c1cccc(-c2ccc3c(c2)S(=O)(=O)c2cccc(C(=O)NCc4ccco4)c2C3=O)c1
IC50 [5]: 8.02 µM (active)

O=C(/C=C/c1ccccc1)OC1CC(O)C2(O)C=CO[C@@H](OC3OC(CO)C(O)C(O)C3O)C12 (stereo partly drawn)
AC50 (Cytochrome P450 3A4 [6]): 3.98 µM (inconclusive)

Cc1cccc(NC(=O)c2onc3c2CCCC3)c1C
AC50 (Cytochrome P450 2C19): 20 µM (inconclusive)
AC50 (Cytochrome P450 2C9): inconclusive

CCOc1ccc(NC(=O)C2CCN(S(=O)(=O)c3ccc4c(c3)N(C(C)=O)CCO4)CC2)cc1
EC50 (cells [3]): > 350 µM (not active)
EC50 (cells [4]): > 350 µM (not active)

O=C1CCCN1c1ccc(CNS(=O)(=O)c2ccc(F)cc2)cc1
EC50 [1]: > 50 µM (active)

COc1ccc(C2(O)CCN(Cc3nnnn3Cc3ccc(F)cc3)CC2)cc1
CC50 [7]: > 40 µM (active)

COc1cccc(C(=O)OCn2nnc3ccccc3c2=O)c1OC
IC50 (cells [2]): 16.2 µM (active)

CCOc1ccccc1OCCOc1ccc(F)cc1
AC50 (Cytochrome P450 2D6): 22.4 µM (inconclusive)
AC50 (Cytochrome P450 2C9): inconclusive

Cc1cc(C(=O)OCC(=O)NCCC(C)C)c2ccccc2n1
AC50 (Cytochrome P450 3A4 [8]): 15.8 µM (inconclusive)
AC50 (Cytochrome P450 2C9): inconclusive

O=C(c1ccc(N2CCN(C(=O)c3ccccc3Br)CC2)cc1)c1cccc(F)c1
IC50 [9]: > 100 µM (not active)

COc1ccc(NC(=O)C2CCN(C(=O)c3cccs3)CC2)c(OC)c1
AC50 (Cytochrome P450 2C9): inconclusive

COc1ccc2cc3cc(C(=O)N4CCN(c5ccccn5)CC4)oc3nc2c1
EC50 (cells [3]): > 350 µM (not active)
EC50 (cells [4]): > 350 µM (not active)

Cc1cc(NC(=O)CSc2c(C)[nH]c3ccccc23)no1
EC50 [10]: 5.22 µM (active)

CCSc1nc(C)cc(C)c1S(=O)(=O)c1ccccc1C
EC50 [1]: > 50 µM (active)

CC(C)c1c(O)ccc2c1CCC1C(C)(C)CCC[C@@]21C (stereo partly drawn)
AC50 (Cytochrome P450 3A4 [6]): 25.1 µM (inconclusive)

Cc1ccc(C)c(Cn2c(CO)nc3ccccc32)c1
EC50 [10]: 2.68 µM (active)

CCCCC#CC1C=CC(Oc2cc(OC)c(OC)c(OC)c2)C(CO)O1 (stereo not drawn)
AC50 (Cytochrome P450 3A4 [6]): 5.01 µM (inconclusive)

CCCOc1ccc(N2CC(C(=O)Nc3ccccn3)CC2=O)cc1 (stereo not drawn)
IC50 (cells [2]): 19.8 µM (active)

CCCCCCOc1ccc(CN2CCN(CC)CC2)cc1
EC50 [1]: > 50 µM (active)
EC50 [11]: 0.752 µM (active)
EC50 [12]: > 30 µM (not active)

Cc1cc(O)c(C(C)(C)C)cc1Sc1cc(C(C)(C)C)c(O)cc1C
AC50 (Cytochrome P450 3A4 [6]): 3.98 µM (inconclusive)

COc1cccc(C(c2nnnn2CCc2ccccc2)N2CCN(c3ccccc3)CC2)c1OC (stereo not drawn)
EC50 [10]: 0.986 µM (active)

Cc1cc(Cl)c(S(=O)(=O)Nc2ccc3c(c2)OCO3)cc1OCC(=O)NC1CCCCC1
EC50 [10]: 2.06 µM (active)

Fc1ccc(CSc2ccc(-c3ccco3)nn2)cc1
EC50 (cells [3]): > 350 µM (not active)
EC50 (cells [4]): 7.7 µM (active)

CC[C@@]12C(=O)N(c3cccc(F)c3)C(=O)N1[C@H](c1ccc(Br)cc1)[C@@H]1C(=O)N(C(C)(C)C)C(=O)[C@@H]12
AC50 [13]: < 0.26 µM (active)
AC50 [14]: < 0.26 µM (active)
AC50 [15]: < 0.26 µM (active)
AC50 [16]: < 0.26 µM (active)

COc1ccc(S(=O)(=O)NCCC(=O)NC(C)c2ccccc2)cc1 (stereo not drawn)
AC50 (Cytochrome P450 2C19): 17.8 µM (inconclusive)
AC50 (Cytochrome P450 2D6): 14.1 µM (inconclusive)
AC50 (Cytochrome P450 3A4 [8]): 22.4 µM (inconclusive)
AC50 (Cytochrome P450 2C9): inconclusive

O=C(C[n+]1cc(-c2ccccc2)n2c1CCC2)c1cccs1
EC50 [1]: > 50 µM (active)

O=C(CCCCCCCC(=O)NNC(=O)Nc1ccccc1)NNC(=O)Nc1ccccc1
IC50 [5]: 11.9 µM (active)

OC1=C2C(=Nc3ccccc3NC2c2cccs2)CCC1 (stereo not drawn)
AC50 [13]: 2.27 µM (active)
AC50 [14]: 1.3 µM (active)
AC50 [15]: 2.44 µM (active)
AC50 [16]: 3.83 µM (active)

Cc1cc(O)nc(N=N/C(=N/Nc2ccc(O)cc2)c2ccccc2)n1
EC50 [17]: 11.6 µM (active)
EC50 [18]: 13.1 µM (active)
EC50 (cells [3]): 102 µM (active)
EC50 (H4): 16.4 µM (active)
EC50 [19]: 0.763 µM (active)
EC50 [20]: 4.42 µM (active)
EC50 (cells [4]): 8.27 µM (active)

Cn1ccs/c1=N\C(=O)c1ccccc1F
IC50 (cells [2]): > 50 µM (active)

O=C(N/N=C/c1cc([N+](=O)[O-])ccc1O)c1cccc2ccccc12
EC50 (cells [3]): 20.3 µM (active)
EC50 [11]: 2.36 µM (active)
EC50 (cells [4]): > 350 µM (not active)
EC50 [12]: > 60 µM (not active)
AC50 (INS1): 4.2 µM (active)

Oc1ccc(C2NCc3ccccc3-n3cccc32)cc1Cl (stereo not drawn)
EC50 [1]: > 50 µM (active)

S=C=Nc1cccc2ccccc12 [1-NAPHTHYLISOTHIOCYANATE]
AC50 (Cytochrome P450 3A4 [6]): 25.1 µM (inconclusive)

COc1ccc(-c2coc3cc(OC)cc(OC)c3c2=O)cc1 [BIOCHANIN A, DIMETHYL ETHER]
AC50 (Cytochrome P450 3A4 [6]): 20 µM (inconclusive)

C=CCN1CC[C@]23c4c5ccc(O)c4O[C@H]2/C(=N/NC(=O)c2ccccc2)CC[C@@]3(O)[C@H]1C5 [NALOXONE BENZOYLHYDRAZONE]
AC50 (Cytochrome P450 3A4 [6]): 15.8 µM (inconclusive)
